Reference: PubChem BioAssay (NCI)
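Values below derive from 48-hour exposures of cells grown in 96-well plates, with endpoints linearly interpolated between the two concentrations bracketing the appropriate inhibition level. GI50 is the concentration that inhibits growth by half. TGI is the concentration that stops growth completely.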

How the values were obtained:
Experiment in all cases: DTP human tumour cell line panel, 48 h
[1] = tested on: DU-145 prostate
[2] = tested on: HT29 colon
[3] = tested on: K-562 leukemia
[4] = tested on: MALME-3M melanoma
[5] = tested on: MCF7 breast
[6] = tested on: MDA-MB-231 breast
[7] = tested on: MDA-MB-435
[8] = tested on: NCI-H226 lung
[9] = tested on: NCI-H522 lung
[10] = tested on: UACC-62 melanoma

| Structure (SMILES) | GI50 [1] | TGI [1] | GI50 [2] | TGI [2] | GI50 [3] | TGI [3] | GI50 [4] | TGI [4] | GI50 [5] | TGI [5] | GI50 [6] | TGI [6] | GI50 [7] | TGI [7] | GI50 [8] | TGI [8] | GI50 [9] | GI50 [10] | TGI [10] | TGI [9] |
| --- | --- | --- | --- | --- | --- | --- | --- | --- | --- | --- | --- | --- | --- | --- | --- | --- | --- | --- | --- | --- |
| COc1ccccc1/C=N\N/C(N)=N\N=C\c1ccccc1OC | 0.386 µM | 2.73 µM | 0.382 µM | > 55.8 µM | 0.263 µM | 1.7 µM | 0.237 µM | 5.2 µM | 0.254 µM | 4.36 µM | 2.58 µM | > 60.3 µM | 0.0235 µM | 0.0824 µM | 8.31 µM | > 47 µM | 0.956 µM | 0.497 µM | > 40.7 µM | – |
| COC(=O)COc1ccccc1/C=C1\N=C(c2ccccc2)N(c2cc(C(F)(F)F)ccc2Cl)C1=O | 22.1 µM | 47.1 µM | 73.2 µM | > 100 µM | 33.8 µM | > 100 µM | 27.5 µM | 92.5 µM | 39.1 µM | > 100 µM | > 100 µM | > 100 µM | 33.1 µM | > 100 µM | 66.6 µM | > 100 µM | 38.2 µM | > 100 µM | > 100 µM | > 100 µM |
| CCOC(=O)c1ccc(NC(=O)Oc2ccc3c(C)cc(=O)oc3c2)cc1 | – | > 100 µM | – | > 100 µM | – | 66.7 µM | – | > 100 µM | – | 88 µM | – | 82.8 µM | – | > 100 µM | – | 81.3 µM | – | – | > 100 µM | 66.7 µM |
| O=C(Nc1ccc(Nc2ccncc2)cc1)c1ccc([N+](=O)[O-])cc1 | 8.87 µM | 42 µM | 3.61 µM | 16.5 µM | 3.11 µM | > 28.2 µM | 4.89 µM | 17.3 µM | 3.5 µM | 20.5 µM | 3.44 µM | 14.9 µM | 5.47 µM | 21.2 µM | 12.1 µM | 29.7 µM | 12.5 µM | 2.65 µM | 9.64 µM | 34.6 µM |
| CN1CCN(C2CCN(C(=O)Nc3cc(Oc4ccc(NC(=O)C5(C(=O)Nc6ccc(F)cc6)CC5)c(F)c4)ccn3)CC2)CC1 | 1.41 µM | > 10 µM | 0.806 µM | > 4.38 µM | 0.514 µM | > 2.53 µM | 0.703 µM | 2.25 µM | 1.09 µM | > 10 µM | 0.981 µM | > 7 µM | 0.918 µM | > 3.27 µM | – | > 3.12 µM | – | 0.771 µM | > 2.02 µM | > 2.66 µM |
| CC1(C)S[C@@H]2[C@H](NC(=O)C3(N)CCCCC3)C(=O)N2[C@H]1C(=O)O | – | > 100 µM | – | > 100 µM | – | > 100 µM | – | > 100 µM | – | > 100 µM | – | > 100 µM | – | > 100 µM | – | > 100 µM | – | – | > 100 µM | > 100 µM |
| O=C(O)COc1ccc2c(=O)c3sc4c(=O)c5ccccc5c(=O)c4c3c(=O)c2c1 | 2.15 µM | 5.34 µM | 22 µM | > 100 µM | 25.6 µM | 95.1 µM | 2.12 µM | 4.59 µM | 5.51 µM | 25.8 µM | 17.8 µM | 71.7 µM | 1.78 µM | 3.35 µM | 15 µM | 41.1 µM | 19.3 µM | 12 µM | 39.4 µM | 53.4 µM |
